Test results reported in ChEMBL document CHEMBL1201862, “PubChem BioAssay data set” (2004).
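Values below derive from 48-hour exposures of cells grown in 96-well plates, with endpoints linearly interpolated between the two concentrations bracketing the appropriate inhibition level. GI50 = concentration required for 50% inhibition of growth.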 Calls of active or inactive are those of the source. Cut-off read from the data, not from the text of the source: active = GI50 up to about 1.1 µM and inactive = higher. Peptide text beside a SMILES is read from it. * marks the point of attachment. X27 = Clc1c(Cl)c(Cl)c(O*)c(Cl)c1Cl; Boc = CC(C)(C)OC(=O)*; OBn = c1ccc(CO*)cc1; Bn = c1ccc(C*)cc1

How the values were obtained:
Test in all cases: inhibition of tumour cell growth, NCI panel, 48 h
UACC-257 = test system: UACC-257
UO-31 = test system: UO-31
SF-268 = test system: SF-268
ACHN = test system: ACHN
NCI-H23 = test system: NCI-H23
MDA-N = test system: MDA-N
SK-MEL-2 = test system: SK-MEL-2
HOP-92 = test system: HOP-92
NCI-H226 = test system: NCI-H226
HOP-62 = test system: HOP-62
TK-10 = test system: TK-10
SF-539 = test system: SF-539
OVCAR-5 = test system: OVCAR-5
SW-620 = test system: SW-620
SK-MEL-28 = test system: SK-MEL-28
MDA-MB-231 = test system: MDA-MB-231
SK-MEL-5 = test system: SK-MEL-5
OVCAR-4 = test system: OVCAR-4
NCI/ADR-RES = test system: NCI/ADR-RES
HCC 2998 = test system: HCC 2998

Measured: GI50

COc1ccc(/C=C(\NC(=O)c2ccccc2)C(=O)NN(C)c2ccnc3cc(Cl)ccc23)cc1OC
inactive: UACC-257 26.4 µM | UO-31 28.2 µM | SF-268 18.5 µM | ACHN 26.1 µM | NCI-H23 24 µM | MDA-N 24.5 µM | SK-MEL-2 21.3 µM | HOP-92 21.4 µM | NCI-H226 19.1 µM | HOP-62 41.3 µM | TK-10 36.7 µM | SF-539 21.5 µM | OVCAR-5 45.9 µM | SW-620 22.1 µM | SK-MEL-28 26 µM | MDA-MB-231 24.3 µM | SK-MEL-5 23.6 µM | OVCAR-4 30.7 µM | NCI/ADR-RES 20.1 µM

NC(=O)NCCSC1CCCCC1O (stereo not given)
inactive: UACC-257 > 100 µM | UO-31 > 100 µM | SF-268 > 100 µM | ACHN > 100 µM | NCI-H23 > 100 µM | MDA-N > 100 µM | SK-MEL-2 > 100 µM | HOP-92 > 100 µM | NCI-H226 > 100 µM | HOP-62 > 100 µM | TK-10 > 100 µM | SF-539 > 100 µM | OVCAR-5 > 100 µM | SW-620 > 100 µM | SK-MEL-28 > 100 µM | MDA-MB-231 > 100 µM | SK-MEL-5 > 100 µM | OVCAR-4 > 100 µM | NCI/ADR-RES > 100 µM

O=C(OC[C@H]1C[C@H]2C(=O)OCCC[C@H]2O1)c1ccccc1
inactive: UACC-257 > 100 µM | UO-31 > 100 µM | SF-268 > 100 µM | ACHN > 100 µM | NCI-H23 > 100 µM | MDA-N > 100 µM | SK-MEL-2 > 100 µM | HOP-92 > 100 µM | NCI-H226 > 100 µM | HOP-62 > 100 µM | TK-10 > 100 µM | OVCAR-5 > 100 µM | SW-620 > 100 µM | SK-MEL-28 > 100 µM | MDA-MB-231 > 100 µM | SK-MEL-5 > 100 µM | OVCAR-4 > 100 µM | NCI/ADR-RES > 100 µM

C=C[C@]1(O[Si](C)(C)C)C[C@@]2(C(=O)OCC)C(O)C(=O)N3CCc4cc(OC)c(OC)cc4[C@]312 (stereo not given in full)
inactive: UACC-257 > 100 µM | UO-31 > 100 µM | SF-268 > 100 µM | ACHN > 100 µM | NCI-H23 > 100 µM | MDA-N > 100 µM | SK-MEL-2 > 100 µM | HOP-92 24.9 µM | NCI-H226 > 100 µM | HOP-62 > 100 µM | TK-10 > 100 µM | SF-539 > 100 µM | OVCAR-5 > 100 µM | SW-620 > 100 µM | SK-MEL-28 > 100 µM | MDA-MB-231 > 100 µM | SK-MEL-5 44.7 µM | OVCAR-4 > 100 µM | NCI/ADR-RES > 100 µM

O=c1cc(CBr)c2ccc(O)cc2o1
inactive: UACC-257 64.4 µM | UO-31 58.5 µM | HCC 2998 76.6 µM | SF-268 > 100 µM | ACHN 66.4 µM | NCI-H23 47.1 µM | MDA-N 98.9 µM | SK-MEL-2 > 100 µM | NCI-H226 78 µM | HOP-62 17 µM | TK-10 88.5 µM | SF-539 > 100 µM | OVCAR-5 8.39 µM | SW-620 > 100 µM | SK-MEL-28 80.4 µM | MDA-MB-231 > 100 µM | SK-MEL-5 45.9 µM | NCI/ADR-RES 87.9 µM

O=C(O)CSCC(=O)c1ccccc1
inactive: UACC-257 > 100 µM | UO-31 > 100 µM | SF-268 > 100 µM | ACHN > 100 µM | NCI-H23 > 100 µM | MDA-N > 100 µM | SK-MEL-2 > 100 µM | HOP-92 > 100 µM | NCI-H226 > 100 µM | HOP-62 > 100 µM | TK-10 > 100 µM | SF-539 > 100 µM | OVCAR-5 > 100 µM | SW-620 > 100 µM | SK-MEL-28 > 100 µM | MDA-MB-231 > 100 µM | SK-MEL-5 > 100 µM | OVCAR-4 > 100 µM | NCI/ADR-RES > 100 µM

CC(C)CC(NC(=O)C(CCC(=O)OCc1ccccc1)NC(=O)OC(C)(C)C)C(=O)NC(COCc1ccccc1)C(=O)NC(Cc1ccccc1)C(=O)Oc1c(Cl)c(Cl)c(Cl)c(Cl)c1Cl (stereo not given) (Boc-E(OBn)LS(Bn)F-X27; configuration not given here)
inactive: UACC-257 28.2 µM | UO-31 22.2 µM | SF-268 35.3 µM | ACHN 23.4 µM | NCI-H23 16.1 µM | MDA-N 20 µM | SK-MEL-2 34 µM | HOP-92 16.5 µM | TK-10 30.3 µM | OVCAR-5 25.3 µM | SW-620 > 100 µM | SK-MEL-28 19.2 µM | MDA-MB-231 15.6 µM | SK-MEL-5 18.4 µM | OVCAR-4 35.6 µM | NCI/ADR-RES 27.4 µM

Cc1ccc(S(=O)(=O)NC(=O)NCC(=O)O)cc1
inactive: UACC-257 > 100 µM | UO-31 > 100 µM | SF-268 > 100 µM | ACHN > 100 µM | NCI-H23 > 100 µM | MDA-N > 100 µM | SK-MEL-2 > 100 µM | HOP-92 > 100 µM | HOP-62 > 100 µM | TK-10 > 100 µM | SF-539 > 100 µM | OVCAR-5 > 100 µM | SW-620 > 100 µM | SK-MEL-28 > 100 µM | MDA-MB-231 > 100 µM | SK-MEL-5 > 100 µM | OVCAR-4 > 100 µM | NCI/ADR-RES > 100 µM

O=c1n(-c2ccccc2)c(=O)n2n1C1CCC2CC1
inactive: UACC-257 > 100 µM | UO-31 > 100 µM | SF-268 > 100 µM | ACHN > 100 µM | NCI-H23 > 100 µM | MDA-N > 100 µM | SK-MEL-2 > 100 µM | HOP-92 > 100 µM | NCI-H226 > 100 µM | HOP-62 > 100 µM | TK-10 > 100 µM | SF-539 > 100 µM | OVCAR-5 > 100 µM | SW-620 > 100 µM | SK-MEL-28 > 100 µM | MDA-MB-231 > 100 µM | SK-MEL-5 > 100 µM | NCI/ADR-RES > 100 µM

C[C@@H]1CC[C@@H]2[C@@H](C1)O[C@@H]([C@@H](C)OCc1ccccc1)SC2(C)C
inactive: UACC-257 19.4 µM | UO-31 16.4 µM | HCC 2998 17.9 µM | SF-268 23 µM | ACHN 17.3 µM | NCI-H23 21.7 µM | MDA-N 18.4 µM | SK-MEL-2 15.8 µM | NCI-H226 19.4 µM | HOP-62 16.4 µM | TK-10 21.7 µM | SF-539 17.2 µM | OVCAR-5 18.3 µM | SW-620 18.4 µM | SK-MEL-28 24.7 µM | MDA-MB-231 21.5 µM | SK-MEL-5 16.3 µM | OVCAR-4 20.1 µM | NCI/ADR-RES 20.1 µM

CCOc1ccc(N/C(=C(/C(Cl)=C(/Cl)N(CC)CC)[N+](=O)[O-])n2nnc3ccccc32)cc1
inactive: UACC-257 38.7 µM | UO-31 19.6 µM | HCC 2998 > 100 µM | SF-268 15.7 µM | ACHN 20 µM | NCI-H23 17.2 µM | MDA-N 26.7 µM | SK-MEL-2 28.2 µM | NCI-H226 37.8 µM | HOP-62 30.7 µM | SF-539 23.2 µM | OVCAR-5 33.3 µM | SW-620 14.2 µM | SK-MEL-28 20 µM | MDA-MB-231 10.7 µM | OVCAR-4 19.7 µM | NCI/ADR-RES 21.1 µM
